# Experiments:
# Assay type in all cases: cell-based, human
# HeLa cells [1] = assay: FACS cell cycle analysis of FANCM-depleted HeLa cells with added agents; conditions: FANCM-depleted HeLa cells; hydroxyurea followed by block release
# Method: When indicated, cells were incubated with 1 μM camptothecin (Sigma-Aldrich) for 3 hours, 0.2 mM hydroxyurea (Sigma-Aldrich) for 16 h, 20 μM BIBR 1532 (Merck Millipore) for 7 days, and 10 μM RO-3306 (Selleckchem) for 18 h. […] For fluorescence-activated cell sorting, cells were trypsinized and pelleted by centrifugation at 500 g at 4° C. for 5 min. Cell pellets were either left untreated for viability assays or fixed in 70% ethanol at −20° C. for 30 min and treated with 25 μg/ml RNaseA (Sigma-Aldrich) in 1×PBS at 37° C. for 20 min. Cells were then washed in 1×PBS and stained with 20 μg/ml propidium iodide (Sigma-Aldrich) in 1×PBS at 4° C. for 10 min. Flow cytometry was performed on a BD FACSCalibur or a BD Accuri C6 (BD Biosciences). Data were analyzed using FlowJo software.
# HeLa cells [2] = assay: Western blot of pS33 (RPA32 phosphorylated at serine 33); conditions: FANCM-depleted HeLa cells
# Method: HeLa cervical cancer, HT1080 fibrosarcoma, and HEK293 embryonic kidney cells were purchased from ATCC. […] HeLa, HT1080, HEK293, U2OS, and WI-38 VA13 cells were cultured in high glucose DMEM, GlutaMAX (Thermo Fisher Scientific) supplemented with 10% tetracycline-free fetal bovine serum (Pan BioTech) and 100 U/ml penicillin-streptomycin (Thermo Fisher Scientific). HuO9, Saos2, HOS and SKNAS cells were cultured in high glucose DMEM/F12, GlutaMAX (Thermo Fisher Scientific), supplemented with 10% tetracycline-free fetal bovine serum (Pan BioTech), 100 U/ml penicillin-streptomycin (Thermo Fisher Scientific) and non-essential amino acids (Thermo Fisher Scientific). Mycoplasma contaminations were tested using the VenorGeM Mycoplasma PCR Detection Kit (Minerva Biolabs) according to the manufacturer's instructions. When indicated, cells were incubated with 1 μM camptothecin (Sigma-Aldrich) for 3 hours, 0.2 mM hydroxyurea (Sigma-Aldrich) for 16 h, 20 μM BIBR 1532 (Merck Millipore) for 7 days, and 10 μM RO-3306 (Selleckchem) for 18 h. Cells were trypsinized and pelleted by centrifugation at 500 g at 4° C. for 5 min. […] Supernatant were recovered and protein concentrations were determined by Lowry assay using bovine serum albumin (BSA; Sigma-Aldrich) as standard. […]
# [3] = system: U-2 OS, GM847 and Saos-2 ALT cell lines; assay: C-circle assay of cells treated with PIP-199; conditions: 0.5 μM PIP-199 for 72 h vs DMSO
# From the text: (a) Schematic of MM2-tamoxifen (40HT)-inducible ER fusion protein-mediated inhibition of the FANCM-BTR complex interaction. […] (c) Tukey boxplots of TIFs in U-2 OS cells expressing MM2-ER or FF>AA-ER fusion proteins in the presence or absence of 40HT. Out of 3 experiments, n=150 cells scored per treatment, **p<0.005, Mann-Whitney test. (d) Representative dot blots and quantitation of C-circle assays in U-2 OS cells expressing MM2-ER or FF>AA-ER fusion proteins in the presence or absence of 40HT. C-circles were normalized to non-induced control. Error bars represent mean±SEM from n 3 experiments, *p<0.05, one-sample t-test. (e) Representative colony formation assay of GM847 and HCT116 cells expressing the MM2-ER fusion protein in the presence or absence of 40HT (top panel). Quantitation of the surviving fraction of colonies for ALT (U-2 OS, GM847 and Saos-2) and telomerase-positive (HeLa and HCT116) cell lines expressing MM2-ER or FF>AA-ER fusion proteins (bottom panel). Colony counts were normalized to non-induced controls. […] (f) Representative dot blots and quantitation of C-circle assays from U-2 OS, GM847, Saos-2, HeLa and HCT116 cells treated with 0.5 μM PIP-199 or vehicle control (DMSO) for 72 h. […] (g) Quantitation of the surviving fraction of colonies from U-2 OS, GM847, Saos-2, HeLa and HCT116 cells treated with PIP-199. […]
# [4] = system: U-2 OS, GM847, Saos-2 (ALT), HeLa and HCT116 (telomerase-positive) cells; assay: Clonogenic assay of cells treated with PIP-199
# Method: (a) Quantitation of the surviving fraction of colonies from U-2 OS, GM847, Saos-2 (ALT), HeLa and HCT116 (telomerase-positive) cells treated with PIP-199 after 11 days. Colony counts were normalized to DMSO controls. Error bars represent mean±SEM from n=3 experiments, *p<0.05, n.s.=non-significant, Student's t-test.
# Clonogenic assays were performed as described in Franken et al., 2006, with cells plated at 1,000 cells/10 cm dish with or without 200 nM 4-hydroxytamoxifen (Sigma Aldrich), which was replenished on days 4 and 7. For cells treated with PIP-199 (Aobious #AOB33732, CAS No: 622795-76-0), cells were plated at 300 cells/well in 6-well plates, and treated with 0-10 μM of drug in dimethyl sulfoxide (DMSO). Cells were left to grow for 11 days. Plates were washed with 1×PBS, then fixed and stained with 0.5% (w/v) crystal violet in 1 part acetic acid, 7 parts methanol for 2 h at room temperature. Plates were then washed with tap water and left to air dry. Colonies on each plate were counted and the plating efficiency and surviving fraction calculated.
# U2OS interphase cells = assay: Telomeric DNA FISH, number and area of telomeric foci, RO-3306 control; conditions: siCt-transfected cells
# Method: FIG. 17. FANCM depletion alters telomeric DNA in interphase U2OS cells. (A) Western blot analysis of FANCM protein levels in U2OS cells transfected and treated with RO-3306 as indicated. Cells were harvested 48 hours after transfection. POLD3, RAD51 and PML levels were also analyzed. Beta Actin and LMB1 serve as loading controls. (B) Quantifications of FACS profiles of cells as in A stained with PI. […] R: RO-3306. (C)) Quantifications of numbers of telomeric foci per nucleus in experiments as in A. Each dot represents an individual nucleus. A total of at least 300 nuclei from three independent experiments were analyzed for each sample. Bars and error bars are means and SDs. P values were calculated with a Mann-Whitney U test. (D) Area distribution of telomeric foci areas in experiments as in C. 3D images were sum projected and areas of individual nuclear FISH signals were measured using DAPI staining to identify nuclei (not shown). A total of at least 300 nuclei from three independent experiments were analyzed for each sample. Areas of telomeric foci (in pixels) are binned into 25 intervals of 5-pixel width (x axis; numbers indicate bin centers) and plotted against frequencies (y axis; %). […] (E) Quantification of cells with at least 5 Large (L) foci in experiments as in C. P values were calculated with a two-tailed Student's t-test. *P<0.05, **P<0.005, ***P<0.001, ****P<0.0001. […]
# U2OS cells [5] = assay: PML, RAD51, POLD3 localization at telomeres (IF/FISH), RO-3306 control; conditions: RO-3306 treatment
# Method: (§1) (A) Quantifications experiments for PML or RAD51 immunostaining combined with telomeric DNA FISH. POLD3 immunostaining combined with RAP1 immunostaining (green); and EdU detection combined with and telomeric DNA FISH. Experiments were performed on U2OS cells transfected with the indicated siRNAs and harvested 48 hours after transfection. Each dot represents an individual nucleus. A total of at least 300 nuclei from three independent experiments were analyzed for each sample. Bars and error bars are means and SDs. P values were calculated with a Mann-Whitney U test. ***P<0.001, ****P<0.0001.
# Cells grown on coverslips were incubated in CSK buffer for 7 min on ice. All subsequent treatments were performed at room temperature. Cells were fixed with 4% formaldehyde (Sigma-Aldrich) in 1×PBS for 10 min, permeabilized with CSK buffer for 5 min, and incubated in blocking solution (0.5% BSA, 0.1% Tween-20 in 1×PBS) for 1 h. Coverslips were incubated in blocking solution containing primary antibodies for 1 h, washed three times with 0.1% Tween-20 in 1×PBS for 10 min each, and incubated with secondary antibodies diluted in blocking solution for 50 min. DNA was counterstained with 100 ng/ml DAPI in 1×PBS. For combined IF and DNA FISH, cells were again fixed with 4% formaldehyde in 1×PBS for 10 min, washed three times with 1×PBS, incubated in 10 mM Tris-HCl pH 7.2 for 5 min and then denatured and hybridized with TelC-Cy3 probes as described above. DNA was counterstained with 100 ng/ml DAPI in 0.1 M Tris-HCl pH 7.2, 0.15 M NaCl, 0.08% Tween-20 and coverslips were mounted on slides in Vectashield. […]
# U2OS cells [6] = assay: Telomere FISH combined with EdU detection, RO-3306 control; conditions: RO-3306 treatment; to lower extents than FANCM depletion
# Method: as §1
# 24 h after siRNA transfection cells were incubated in 10 μM RO-3306 (Selleckchem). 21.5 h later 10 μM EdU (Thermo Fisher Scientific) was added to the culture medium, followed by a 2.5 h incubation. Cells were first stained as for DNA FISH using the TelC-Cy3 probe and then washed twice with 1×PBS followed by EdU detection using the Click-iT EdU Alexa Fluor 488 Imaging Kit (Thermo Fisher Scientific) according to the manufacturer's instructions. DNA was counterstained with 100 ng/ml DAPI in 1×PBS and coverslips were mounted on slides in Vectashield. Image acquisition and analysis were as for DNA FISH.
structure (smiles),measurement,setting,value
"NC(=O)NO [HU, hydroxyurea]",cell cycle distribution,HeLa cells [1],did not show an altered cell cycle distribution
same,pS33 accumulation,HeLa cells [2],did not promote pS33 accumulation
"CCOC(=O)N1CCN(C(c2ccccn2)c2c(-c3ccccc3)n(O)c3ccccc23)CC1 (centres unmarked) [PIP-199, 4-[(1-Hydroxy-2-phenyl-1H-indol-3-yl)-pyridin-2-yl-methyl]-piperazine-1-carboxylic acid ethyl ester]",C-circles,[3],increase in C-circles
same,sensitivity in clonogenic assay (surviving fraction of colonies),"[4]; 0-10 μM PIP-199, 11 days, ALT vs telomerase-positive cells",hypersensitivity of ALT cells
same,surviving fraction of colonies,"[4]; normalized to DMSO controls, datapoint exceeding the visible axis of FIG. 11g, cell line not stated",1.42
O=C1NC(=NCc2cccs2)S/C1=C\c1ccc2ncccc2c1 [RO-3306],number of telomeric foci,U2OS interphase cells; 10 μM RO-3306,less telomeric foci than control cells
same,cells with at least 5 large foci,U2OS interphase cells; RO-3306-treated,~15%
same,number of telomeric PML foci,U2OS cells [5],did not substantially affect
same,number of telomeric RAD51 foci,U2OS cells [5],did not substantially affect
same,number of telomeric POLD3 foci,U2OS cells [5]; less importantly than FANCM depletion,increased
same,incidence of telomeric EdU foci,U2OS cells [6],increased the incidence of telomeric EdU foci

# Reference: patent US20230149507A1, “TREATMENT OF ALT CANCERS” (INSTITUTO DE MEDICINA MOLECULAR JOÃO LOBO ANTUNES, priority 2019, published 2023)
